In publication PMC9104950, “Stereoselective Covalent Adduct Formation of Acyl Glucuronide Metabolite of Nonsteroidal Anti-Inflammatory Drugs with UDP-Glucuronosyltransferase” (International Journal of Molecular Sciences, 2022):

Assays:
UGT2B4 = biological target: T1, UGT2B4 (Homo sapiens, UniProt P06133); experiment: Covalent adduct formation of NSAIDs-AG with UGT2B4; assay type: binding; conditions: 180 μM, UGT 3.4 μM, 6 h
T1 construct: purchased Corning, Inc
T1 sequence (P06133 24-528): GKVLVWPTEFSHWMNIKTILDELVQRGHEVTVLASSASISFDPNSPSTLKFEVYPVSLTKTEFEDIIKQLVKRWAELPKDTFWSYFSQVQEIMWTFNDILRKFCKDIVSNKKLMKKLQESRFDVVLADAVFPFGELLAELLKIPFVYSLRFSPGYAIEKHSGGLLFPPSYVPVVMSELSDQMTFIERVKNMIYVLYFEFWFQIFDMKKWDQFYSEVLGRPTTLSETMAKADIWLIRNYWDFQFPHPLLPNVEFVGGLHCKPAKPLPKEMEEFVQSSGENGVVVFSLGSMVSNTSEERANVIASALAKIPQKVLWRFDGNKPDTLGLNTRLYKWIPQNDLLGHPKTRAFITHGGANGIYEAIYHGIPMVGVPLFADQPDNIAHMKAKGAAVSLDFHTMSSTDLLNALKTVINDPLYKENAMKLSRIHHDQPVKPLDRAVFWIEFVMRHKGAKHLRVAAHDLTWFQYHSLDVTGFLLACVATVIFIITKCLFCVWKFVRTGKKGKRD
Protocol: (§1) The concentrations of UGT were set at 3.4 μM by the preliminary experiments on the linearity of covalent adduct formation. The covalent adduct formation of NSAIDs-AG with organelle proteins and UGT was determined according to previous reports on NSAIDs-AG with albumin with some modifications. After a deproteinization of the reaction mixture, methanol/diethyl ether (3:1) was added to the pellet. […] The concentrations of the parent NSAIDs were measured using liquid chromatography-tandem mass spectrometry (LC-MS/MS). Aliquots of 10 μL were injected into the LC-MS/MS system. The LC-MS/MS equipment consisted of an LC system (UltiMate 3000 series, Thermo Fisher Scientific, Inc.) and TSQ Endura Triple Quadrupole Mass Spectrometer with electrospray ionization (Thermo Fisher Scientific, Inc.). Finnigan Xcalibur software (Thermo Fisher Scientific, Inc.) was used for data recording and analysis. Analysis was further performed using a reversed-phase column (COSMOSIL 5C18-MSII, 2.0 mm × 150 mm, 5 μm; Nacalai Tesque, Inc.). The column temperature was set to 40 °C, and the autosampler was maintained at 10 °C. The mobile phase (A; 30% methanol in 8.5 mM ammonium formate and 0.0075% formic acid, and B; 90% methanol in 8.5 mM ammonium formate and 0.0075% formic acid) was pumped at a flow rate of 0.2 mL/min. The initial mobile phase composition was maintained at 30% mobile phase B for 1 min, changed linearly to 90% mobile phase B from 1 to 8 min, maintained for 1 min, returned to 30% mobile phase B from 9 to 10 min, and maintained for 1 min for chromatographic column equilibrium. The MS scan was operated in positive ionization mode for DIC, MEF, ZOM, KET, and NAP, or negative ionization mode, for FLU. The conditions for electrospray ionization were set at 3500 V spray voltage for positive ionization mode and 2500 V spray voltage for negative ionization mode at 400 °C capillary temperature, and 300 °C vaporizer temperature with 40 arbitrary units of nitrogen sheath gas and 10 arbitrary units of auxiliary gas. The MS scan was operated in the positive or negative ionization mode. The selected reaction monitoring (SRM) mode was used, with argon as the collision gas at 1.5 mTorr. The mass resolution was set at 0.7 full-width at half-height (unit resolution). SRM transitions (precursor and product ions) were mass to charge ratios of (m/z) 296 > 214 for DIC (positive ionization mode), 294 > 250 for DIC (negative ionization mode), 242 > 224 for MEF, 292 > 139 for ZOM, 243 > 198 for R- and S-FLU, 255 > 209 for R- and S-KET, 231 > 185 for R- and S-NAP, and 302 > 220 for DIC-d4. The collision energies were 15 V for DIC (negative ionization mode), ZOM, MEF, FLU, KET, and NAP; 35 V for DIC (positive ionization mode); and DIC-d4. The concentrations of NSAIDs were determined from a single-point calibration in every assay for NSAIDs after confirmation of linearity between area and concentrations of NSAIDs.

UGT2B7 = biological target: T2, UGT2B7 (Homo sapiens, UniProt P16662); experiment: Covalent adduct formation of NSAIDs-AG with UGT2B7; assay type: binding; conditions: 180 μM, UGT 3.4 μM, 6 h; for covalent adduct formation with UGT2B7 compared with the other diastereomer: R vs S diastereomer
T2 construct: purchased Corning, Inc
T2 sequence (P16662 24-529): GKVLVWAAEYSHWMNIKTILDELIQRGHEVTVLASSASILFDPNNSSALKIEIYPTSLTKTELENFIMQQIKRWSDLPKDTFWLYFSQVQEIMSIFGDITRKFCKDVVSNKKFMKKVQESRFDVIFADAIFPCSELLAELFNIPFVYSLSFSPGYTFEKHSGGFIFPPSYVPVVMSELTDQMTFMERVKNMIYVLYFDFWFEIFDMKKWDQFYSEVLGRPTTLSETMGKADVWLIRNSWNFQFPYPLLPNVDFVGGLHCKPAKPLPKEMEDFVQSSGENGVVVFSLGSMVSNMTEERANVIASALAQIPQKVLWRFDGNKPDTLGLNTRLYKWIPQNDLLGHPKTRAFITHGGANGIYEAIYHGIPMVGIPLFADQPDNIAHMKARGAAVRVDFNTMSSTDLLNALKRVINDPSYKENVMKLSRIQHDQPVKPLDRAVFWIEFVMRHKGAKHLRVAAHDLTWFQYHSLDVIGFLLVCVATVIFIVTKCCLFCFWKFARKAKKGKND
Protocol: as §1

UGT1A1 = biological target: T3, UGT1A1 (Homo sapiens, UniProt P22309); experiment: Covalent adduct formation of NSAIDs-AG with UGT1A1; assay type: binding; conditions: R vs S diastereomer; 180 μM, UGT 3.4 μM, 6 h
T3 construct: purchased Corning, Inc
T3 sequence (P22309 26-533): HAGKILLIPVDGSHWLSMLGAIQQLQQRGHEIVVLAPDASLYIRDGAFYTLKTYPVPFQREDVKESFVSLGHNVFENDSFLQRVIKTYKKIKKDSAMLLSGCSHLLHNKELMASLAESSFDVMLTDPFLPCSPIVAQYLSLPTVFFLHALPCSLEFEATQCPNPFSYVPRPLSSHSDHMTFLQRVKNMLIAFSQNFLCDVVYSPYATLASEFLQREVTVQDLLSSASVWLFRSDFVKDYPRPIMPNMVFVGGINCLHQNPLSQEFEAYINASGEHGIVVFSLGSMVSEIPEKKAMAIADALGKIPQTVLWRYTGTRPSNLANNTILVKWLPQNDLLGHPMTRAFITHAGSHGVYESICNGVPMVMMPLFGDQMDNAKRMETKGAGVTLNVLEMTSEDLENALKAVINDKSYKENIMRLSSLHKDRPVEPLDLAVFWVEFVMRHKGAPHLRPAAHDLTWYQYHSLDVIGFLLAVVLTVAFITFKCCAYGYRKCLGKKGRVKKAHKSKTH
Protocol: as §1, with “The conditions for electrospray ionization were set at 3500 V spray voltage for positive ionization mode and 2500 V spray voltage for negative ionization mode at 400 °C capillary temperature, and 300 °C vaporizer temperature with 40 arbitrary units of nitrogen sheath gas and 10 arbitrary units of auxiliary gas. The MS scan was operated in the positive or negative ionization mode. The selected reaction monitoring (SRM) mode was used, with argon as the collision gas at 1.5 mTorr. The mass resolution was set at 0.7 full-width at half-height (unit resolution). SRM transitions (precursor and product ions) were mass to charge ratios of (m/z) 296 > 214 for DIC (positive ionization mode), 294 > 250 for DIC (negative ionization mode), 242 > 224 for MEF, 292 > 139 for ZOM, 243 > 198 for R- and S-FLU, 255 > 209 for R- and S-KET, 231 > 185 for R- and S-NAP, and 302 > 220 for DIC-d4. The collision energies were 15 V for DIC (negative ionization mode), ZOM, MEF, FLU, KET, and NAP; 35 V for DIC (positive ionization mode); and DIC-d4.” left out

UGT1A9 = biological target: T4, UGT1A9 (Homo sapiens, UniProt O60656); experiment: Covalent adduct formation of NSAIDs-AG with UGT1A9; assay type: binding; conditions: R vs S diastereomer; 180 μM, UGT 3.4 μM, 6 h
T4 construct: purchased Corning, Inc
T4 sequence (O60656 26-530): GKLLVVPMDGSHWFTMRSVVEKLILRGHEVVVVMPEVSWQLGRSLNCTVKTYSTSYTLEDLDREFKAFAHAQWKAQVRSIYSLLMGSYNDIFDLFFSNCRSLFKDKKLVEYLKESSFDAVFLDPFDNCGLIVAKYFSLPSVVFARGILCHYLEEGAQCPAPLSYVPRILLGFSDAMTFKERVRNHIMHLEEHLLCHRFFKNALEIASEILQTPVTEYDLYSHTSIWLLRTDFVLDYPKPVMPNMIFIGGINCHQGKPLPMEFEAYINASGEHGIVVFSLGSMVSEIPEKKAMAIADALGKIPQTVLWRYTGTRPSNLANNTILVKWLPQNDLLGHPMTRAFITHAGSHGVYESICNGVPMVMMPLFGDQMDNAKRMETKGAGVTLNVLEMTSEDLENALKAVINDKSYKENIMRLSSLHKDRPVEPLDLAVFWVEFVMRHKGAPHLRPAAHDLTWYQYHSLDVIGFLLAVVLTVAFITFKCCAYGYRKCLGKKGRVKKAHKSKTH
Protocol: as §1, with “The conditions for electrospray ionization were set at 3500 V spray voltage for positive ionization mode and 2500 V spray voltage for negative ionization mode at 400 °C capillary temperature, and 300 °C vaporizer temperature with 40 arbitrary units of nitrogen sheath gas and 10 arbitrary units of auxiliary gas. The MS scan was operated in the positive or negative ionization mode. The selected reaction monitoring (SRM) mode was used, with argon as the collision gas at 1.5 mTorr. The mass resolution was set at 0.7 full-width at half-height (unit resolution). SRM transitions (precursor and product ions) were mass to charge ratios of (m/z) 296 > 214 for DIC (positive ionization mode), 294 > 250 for DIC (negative ionization mode), 242 > 224 for MEF, 292 > 139 for ZOM, 243 > 198 for R- and S-FLU, 255 > 209 for R- and S-KET, 231 > 185 for R- and S-NAP, and 302 > 220 for DIC-d4. The collision energies were 15 V for DIC (negative ionization mode), ZOM, MEF, FLU, KET, and NAP; 35 V for DIC (positive ionization mode); and DIC-d4.” left out

[1] = set-up: method as in PMID 20606003, PMID 1673415; conditions: phosphate buffers (pH 7.4); cited from earlier work

Row | Structure (SMILES) | amounts of covalent adducts with UGT2B (UGT2B4) relative to UGT1A isoforms (UGT2B4) | amounts of covalent adducts with UGT2B (UGT2B7) relative to UGT1A isoforms (UGT2B7) | covalent adduct formation with UGT1A1 compared with the other diastereomer (UGT1A1) | covalent adduct formation with UGT1A9 compared with the other diastereomer (UGT1A9) | covalent adduct formation with UGT2B7 compared with the other diastereomer (UGT2B7) | half-lives in buffers [1] | amounts of covalent adducts with UGT2B7 compared with UGT1A9 (UGT2B7) | covalent adduct formation with UGT2B7 (UGT2B7; 37 °C)
1 | CC(C(=O)OC1OC(C(=O)O)C(O)C(O)C1O)c1ccc(-c2ccccc2)c(F)c1 (stereo not shown) [R-FLU-AG] | relatively higher amounts of covalent adducts | relatively higher amounts of covalent adducts |  |  |  |  |  | 
2 | COc1ccc2cc(C(C)C(=O)OC3OC(C(=O)O)C(O)C(O)C3O)ccc2c1 (stereo not shown) [R-NAP-AG] | relatively higher amounts of covalent adducts | relatively higher amounts of covalent adducts | significantly more covalent adducts | significantly more covalent adducts | significantly more covalent adducts |  |  | 
3 | CC(C(=O)OC1OC(C(=O)O)C(O)C(O)C1O)c1ccc(-c2ccccc2)c(F)c1 (stereo not shown) [S-FLU-AG] |  |  | significantly higher | significantly higher | significantly higher |  |  | 
4 | Cc1cc(CC(=O)O[C@@H]2O[C@H](C(=O)O)[C@@H](O)[C@H](O)[C@H]2O)n(C)c1C(=O)c1ccc(Cl)cc1 [ZOM-AG] |  |  |  |  |  | relatively short half-lives | significantly higher amounts of covalent adducts | higher amounts of covalent adducts
